Reference: PubChem BioAssay AID1963974 (Molecular Pharmacology Branch, DTP, NCI, 2024)

System: 648629-189-R-J1-PDC spheroids with HUVEC/MSC, viability
Experiment: Anticancer human tumor 648629-189-R-J1-PDC patient-derived bladder carcinoma cell line growth inhibition [PI3K]
Conditions: for IC50: curve of first compound; for viability, T/C: stronger effect = lower value
Summary of the method: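 Stroma-containing spheroids: tumor line, pooled-donor HUVEC, hMSC. Treatments: targeted agents with PI3K inhibitors. Dosing: clinically relevant, half-log spacing, 10 microM ceiling without known Cmax. Read-out: cell viability.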

[1] = second compound 0.0316 µM, first compound 0.0316 µM
[2] = second compound 0.0316 µM, first compound 0.1 µM
[3] = second compound 0.1 µM, first compound 0.0316 µM
[4] = second compound 0.1 µM, first compound 0.1 µM
[5] = second compound 0.316 µM, first compound 0.0316 µM
[6] = second compound 0.316 µM, first compound 0.1 µM
[7] = second compound 1 µM, first compound 0.0316 µM
[8] = second compound 1 µM, first compound 0.1 µM
[9] = second compound 3.16 µM, first compound 0.0316 µM
[10] = second compound 3.16 µM, first compound 0.1 µM
[11] = second compound 10 µM, first compound 0.0316 µM
[12] = second compound 10 µM, first compound 0.1 µM
[13] = second compound 0.0316 µM, first compound 0.316 µM
[14] = second compound 0.0316 µM, first compound 1 µM
[15] = second compound 0.0316 µM, first compound 3.16 µM
[16] = second compound 0.0316 µM, first compound 10 µM
[17] = second compound 0.1 µM, first compound 0.316 µM
[18] = second compound 0.1 µM, first compound 1 µM
[19] = second compound 0.1 µM, first compound 3.16 µM
[20] = second compound 0.1 µM, first compound 10 µM
[21] = second compound 0.316 µM, first compound 0.316 µM
[22] = second compound 0.316 µM, first compound 1 µM
[23] = second compound 0.316 µM, first compound 3.16 µM
[24] = second compound 0.316 µM, first compound 10 µM
[25] = second compound 1 µM, first compound 0.316 µM
[26] = second compound 1 µM, first compound 1 µM
[27] = second compound 1 µM, first compound 3.16 µM
[28] = second compound 1 µM, first compound 10 µM
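Also: spheroids exposed to agents for seven days before reading.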
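For viability, T/C in this document: percent of vehicle control luminescence where 100% = DMSO treated spheroids.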

## CC(=O)c1c(C)c2cnc(Nc3ccc(N4CCNCC4)cn3)nc2n(C2CCCC2)c1=O + Cc1nc(NC(=O)N2CCCC2C(N)=O)sc1-c1ccnc(C(C)(C)C(F)(F)F)c1
Second compound 0.0316 µM
  IC50: > 0.1 µM
Second compound 0.1 µM
  IC50: > 0.1 µM
Second compound 0.316 µM
  IC50: > 0.1 µM
Second compound 1 µM
  IC50: > 0.1 µM
Second compound 3.16 µM
  IC50: > 0.1 µM
Second compound 10 µM
  IC50: < 0.000316 µM
Second compound 0.0316 µM, first compound 0.000316 µM
  viability, T/C: 91.4%
Second compound 0.0316 µM, first compound 0.001 µM
  viability, T/C: 91.7%
Second compound 0.0316 µM, first compound 0.00316 µM
  viability, T/C: 100%
Second compound 0.0316 µM, first compound 0.01 µM
  viability, T/C: 100%
[1]
  viability, T/C: 96.6%
[2]
  viability, T/C: 101%
Second compound 0.1 µM, first compound 0.000316 µM
  viability, T/C: 91.1%
Second compound 0.1 µM, first compound 0.001 µM
  viability, T/C: 96.9%
Second compound 0.1 µM, first compound 0.00316 µM
  viability, T/C: 93.7%
Second compound 0.1 µM, first compound 0.01 µM
  viability, T/C: 91.9%
[3]
  viability, T/C: 107%
[4]
  viability, T/C: 91.2%
Second compound 0.316 µM, first compound 0.000316 µM
  viability, T/C: 80.9%
Second compound 0.316 µM, first compound 0.001 µM
  viability, T/C: 86.1%
Second compound 0.316 µM, first compound 0.00316 µM
  viability, T/C: 85.1%
Second compound 0.316 µM, first compound 0.01 µM
  viability, T/C: 84.1%
[5]
  viability, T/C: 90.2%
[6]
  viability, T/C: 85.3%
Second compound 1 µM, first compound 0.000316 µM
  viability, T/C: 72.4%
Second compound 1 µM, first compound 0.001 µM
  viability, T/C: 68.1%
Second compound 1 µM, first compound 0.00316 µM
  viability, T/C: 73.7%
Second compound 1 µM, first compound 0.01 µM
  viability, T/C: 71.7%
[7]
  viability, T/C: 70.5%
[8]
  viability, T/C: 71.9%
Second compound 3.16 µM, first compound 0.000316 µM
  viability, T/C: 52.6%
Second compound 3.16 µM, first compound 0.001 µM
  viability, T/C: 53.2%
Second compound 3.16 µM, first compound 0.00316 µM
  viability, T/C: 61.6%
Second compound 3.16 µM, first compound 0.01 µM
  viability, T/C: 54.9%
[9]
  viability, T/C: 54.6%
[10]
  viability, T/C: 54.6%
Second compound 10 µM, first compound 0.000316 µM
  viability, T/C: 36.5%
Second compound 10 µM, first compound 0.001 µM
  viability, T/C: 44.9%
Second compound 10 µM, first compound 0.00316 µM
  viability, T/C: 38.9%
Second compound 10 µM, first compound 0.01 µM
  viability, T/C: 30.1%
[11]
  viability, T/C: 44.1%
[12]
  viability, T/C: 34%

## C[C@@H](NC(=O)c1ncnc(N)c1Cl)c1ncc(C(=O)Nc2cc(C(F)(F)F)c(Cl)cn2)s1 + Cc1nc(NC(=O)N2CCCC2C(N)=O)sc1-c1ccnc(C(C)(C)C(F)(F)F)c1
Second compound 0.0316 µM
  IC50: > 10 µM
Second compound 0.1 µM
  IC50: > 10 µM
Second compound 0.316 µM
  IC50: > 10 µM
Second compound 1 µM
  IC50: > 10 µM
Second compound 3.16 µM
  IC50: > 10 µM
Second compound 10 µM
  IC50: < 0.0316 µM
[1]
  viability, T/C: 101%
[2]
  viability, T/C: 93.8%
[13]
  viability, T/C: 98.8%
[14]
  viability, T/C: 116%
[15]
  viability, T/C: 107%
[16]
  viability, T/C: 106%
[3]
  viability, T/C: 107%
[4]
  viability, T/C: 92.4%
[17]
  viability, T/C: 95.4%
[18]
  viability, T/C: 108%
[19]
  viability, T/C: 120%
[20]
  viability, T/C: 118%
[5]
  viability, T/C: 81.2%
[6]
  viability, T/C: 101%
[21]
  viability, T/C: 83.4%
[22]
  viability, T/C: 93%
[23]
  viability, T/C: 90.9%
[24]
  viability, T/C: 94.5%
[7]
  viability, T/C: 74%
[8]
  viability, T/C: 73.2%
[25]
  viability, T/C: 78%
[26]
  viability, T/C: 77.9%
[27]
  viability, T/C: 88.7%
[28]
  viability, T/C: 82.6%
[9]
  viability, T/C: 53.3%
[10]
  viability, T/C: 56.6%
Second compound 3.16 µM, first compound 0.316 µM
  viability, T/C: 59%
Second compound 3.16 µM, first compound 1 µM
  viability, T/C: 55%
Second compound 3.16 µM, first compound 3.16 µM
  viability, T/C: 66%
Second compound 3.16 µM, first compound 10 µM
  viability, T/C: 54.7%
[11]
  viability, T/C: 40.2%
[12]
  viability, T/C: 35.4%
Second compound 10 µM, first compound 0.316 µM
  viability, T/C: 39.2%
Second compound 10 µM, first compound 1 µM
  viability, T/C: 36%
Second compound 10 µM, first compound 3.16 µM
  viability, T/C: 36.6%
Second compound 10 µM, first compound 10 µM
  viability, T/C: 42.7%

## C#Cc1c(F)ccc2cc(O)cc(-c3ncc4c(N5CC6CCC(C5)N6)nc(OCC56CCCN5CC(F)C6)nc4c3F)c12 (stereo unspecified) + CC(Nc1ccc2c(c1)OCCn1cc(N3C(=O)OCC3C(F)F)nc1-2)C(N)=O
Second compound 0.00316 µM
  IC50: > 10 µM
Second compound 0.01 µM
  IC50: > 10 µM
Second compound 0.0316 µM
  IC50: > 10 µM
Second compound 0.1 µM
  IC50: > 10 µM
Second compound 0.316 µM
  IC50: > 10 µM
Second compound 1 µM
  IC50: > 10 µM
Second compound 0.00316 µM, first compound 0.0316 µM
  viability, T/C: 105%
Second compound 0.00316 µM, first compound 0.1 µM
  viability, T/C: 96.2%
Second compound 0.00316 µM, first compound 0.316 µM
  viability, T/C: 109%
Second compound 0.00316 µM, first compound 1 µM
  viability, T/C: 96.6%
Second compound 0.00316 µM, first compound 3.16 µM
  viability, T/C: 120%
Second compound 0.00316 µM, first compound 10 µM
  viability, T/C: 102%
Second compound 0.01 µM, first compound 0.0316 µM
  viability, T/C: 97.9%
Second compound 0.01 µM, first compound 0.1 µM
  viability, T/C: 99.9%
Second compound 0.01 µM, first compound 0.316 µM
  viability, T/C: 96.3%
Second compound 0.01 µM, first compound 1 µM
  viability, T/C: 97%
Second compound 0.01 µM, first compound 3.16 µM
  viability, T/C: 106%
Second compound 0.01 µM, first compound 10 µM
  viability, T/C: 85.8%
[1]
  viability, T/C: 105%
[2]
  viability, T/C: 100%
[13]
  viability, T/C: 93.2%
[14]
  viability, T/C: 99.1%
[15]
  viability, T/C: 103%
[16]
  viability, T/C: 92.5%
[3]
  viability, T/C: 92.7%
[4]
  viability, T/C: 85.5%
[17]
  viability, T/C: 81.7%
[18]
  viability, T/C: 90%
[19]
  viability, T/C: 95.4%
[20]
  viability, T/C: 89.3%
[5]
  viability, T/C: 82.3%
[6]
  viability, T/C: 75%
[21]
  viability, T/C: 71.7%
[22]
  viability, T/C: 74.8%
[23]
  viability, T/C: 80.8%
[24]
  viability, T/C: 75.3%
[7]
  viability, T/C: 57.5%
[8]
  viability, T/C: 66.4%
[25]
  viability, T/C: 63.2%
[26]
  viability, T/C: 58.7%
[27]
  viability, T/C: 64.5%
[28]
  viability, T/C: 57.4%
